The values that follow come from patent EP0318860B1, “Substituted alkylamine derivatives” (BANYU PHARMACEUTICAL CO., LTD., priority 1987, dated 1989).

Where a name gives a salt, the structure may show the parent alone.

For this test, the target named is T1, rat squalene epoxidase (Rattus norvegicus, UniProt P52020).
T1 construct: Livers were extracted and homogenized; from tissue; host or cells: liver of SD-strain female rats; microsomes solubilized with 2 % Triton X-100, 105000 x g supernatant
T1 sequence (P52020 whole entry): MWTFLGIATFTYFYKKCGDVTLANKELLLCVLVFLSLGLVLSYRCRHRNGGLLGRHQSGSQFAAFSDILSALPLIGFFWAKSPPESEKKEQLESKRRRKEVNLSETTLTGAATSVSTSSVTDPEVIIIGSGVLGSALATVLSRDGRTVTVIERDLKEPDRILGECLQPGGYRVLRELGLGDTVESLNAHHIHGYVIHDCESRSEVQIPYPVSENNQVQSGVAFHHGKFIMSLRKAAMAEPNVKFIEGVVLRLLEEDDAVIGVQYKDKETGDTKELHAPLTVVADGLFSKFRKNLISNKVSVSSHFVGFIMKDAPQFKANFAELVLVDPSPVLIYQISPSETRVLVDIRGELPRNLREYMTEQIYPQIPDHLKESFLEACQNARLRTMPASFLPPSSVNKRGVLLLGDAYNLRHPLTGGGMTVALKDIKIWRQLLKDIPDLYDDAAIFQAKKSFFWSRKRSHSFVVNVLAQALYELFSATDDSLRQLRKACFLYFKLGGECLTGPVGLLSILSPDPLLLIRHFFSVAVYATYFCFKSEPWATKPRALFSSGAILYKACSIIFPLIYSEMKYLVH
Nature of the test: Squalene epoxidase inhibiting activity (3H-squalene to squalene-2,3-epoxide, solubilized liver microsome fraction). The note with it: 8 µM 3H-squalene, 37 °C, 30 minutes, read-out: 50 % inhibitory concentration (IC50). In kind it is biochemical. On the procedure:
The rat squalene epoxidase was prepared by the method described in J. Biol. Chem., vol.
SD-strain female rats were killed by exsanguination. Livers were extracted and homogenized with in the presence of 2 volumes of 0.1M Tris-HCl buffer (pH 7.5). The homogenate was centrifuged at 9750 Xg for 10 minutes. The supernatant fraction was further centrifuged at 105000 Xg for 1 hour. The sediment was washed with 0.1M Tris-HCl buffer (pH 7.5), and then centrifuged at 105000 Xg for 1 hour. The microsomes obtained were suspended in 0.1M Tris-HCl buffer (pH 7.5) so that the amount of proteins was 40 mg/ml, and under ice cooling, the suspension was stirred in the presence of 2 % Triton X-100 to solubilize the enzyme. After the solubilization, the solution was diluted to a Triton X-100 concentration of 0.5 % with 1 mM EDTA and 1 mM dithiothreitol, and centrifuged at 105000 Xg for 1 hour. The resulting supernatant fraction was used in the following test as a squalene epoxidase fraction.
The squalene epoxidase activity was assayed in accordance with the method described in J. Biol. Chem., vol.
Three microliters of a dimethyl sulfoxide solution of a test drug was added to a solution composed of 0.2 ml of the squalene epoxidase fraction prepared in (1) [proteins 0.4 mg, 0.5 % Triton X-100, […] Tris-HCl buffer (pH 7.5)], 100 µM FAD, 1 mM NADPH, 1 mM EDTA and 8 µM ³H-squalene-Tween 80 emulsion to adjust the total amount of the solution to 0.3 ml. The solution was incubated at 37 °C for 30 minutes with shaking. Then, 0.3 ml of a 10 % methanolic potassium hydroxide was added to stop the reaction, and the reaction mixture was left to stand at room temperature for 1 hour. The non-saponified material was extracted with petroleum ether, and the solvent was evaporated under a nitrogen stream. […] The position of the resulting ³H-squalene-2,3-epoxide on TLC was determined using ergosterol acetate as a marker, and the ³H-squalene-2,3-epoxide portion on the TLC was cut off. The TLC strip was immersed in a toluene-type scintillator, and measured by a liquid scintillation counter.
On the technique in general: Liver microsomes are a subcellular fraction often used to study metabolism.
As for `CC(C)(C)C#C/C=C/CNCc1cccc(OCc2ccccc2)c1` [Compound 1, (E)-N-(6,6-dimethyl-2-hepten-4-ynyl)-3-benzyloxybenzylamine], the IC50 turned out to be 6800 nM.
For `CN(C/C=C/C#CC(C)(C)C)Cc1cccc(OCc2cccc(Cl)c2)c1` [Compound 8, (E)-N-(6,6-dimethyl-2-hepten-4-ynyl)-N-methyl-3-(3-chlorobenzyloxy)benzylamine], the IC50 stood at 2900 nM.
Take `CN(C/C=C/C#CC(C)(C)C)Cc1cccc(OCc2ccc(F)cc2)c1` [Compound 10, (E)-N-(6,6-dimethyl-2-hepten-4-ynyl)-N-methyl-3-(4-fluorobenzyloxy)benzylamine]: the IC50 was found to be 4700 nM.
The figure for `COc1ccc(COc2cccc(CN(C)C/C=C/C#CC(C)(C)C)c2)cc1` [Compound 12, (E)-N-(6,6-dimethyl-2-hepten-4-ynyl)-N-methyl-3-(4-methoxybenzyloxy)benzylamine] is 6000 nM.
Take `CC(Oc1cccc(CN(C)C/C=C/C#CC(C)(C)C)c1)c1ccccc1` (stereo not drawn) [Compound 16, (E)-N-(6,6-dimethyl-2-hepten-4-ynyl)-N-methyl-3-(alpha-phenethyloxy)benzylamine]: the IC50 stood at 1400 nM.
The figure for `CN(C/C=C\C#CC(C)(C)C)Cc1cccc(OCc2cccc3ccccc23)c1` [Compound 19, (Z)-N-(6,6-dimethyl-2-hepten-4-ynyl)-N-methyl-3-(1-naphthylmethyloxy)benzylamine] is 3100 nM.
On to `Cc1ccc(CN(C)C/C=C/C#CC(C)(C)C)cc1OCc1ccccc1` [Compound 28, (E)-(6,6-dimethyl-2-hepten-4-ynyl)-N-methyl-3-benzyloxy-4-methylbenzylamine], for which the IC50 was 5600 nM.
As for `CN(C/C=C/C#CC(C)(C)C)Cc1cccc(OCc2ccco2)c1` [Compound 34, (E)-N-(6,6-dimethyl-2-hepten-4-ynyl)-N-methyl-3-furfuryloxybenzylamine], the IC50 stood at 1700 nM.
Consider `C=CCN(C/C=C/C#CC(C)(C)C)Cc1cccc(OCc2ccccc2)c1` [Compound 41, (E)-N-allyl-N-(6,6-dimethyl-2-hepten-4-ynyl)-3-benzyloxybenzylamine], for which the IC50 was determined as 2100 nM.
Take `C#CCN(C/C=C/C#CC(C)(C)C)Cc1cccc(OCc2ccccc2)c1` [Compound 42, (E)-N-(6,6-dimethyl-2-hepten-4-ynyl)-N-propargyl-3-benzyloxybenzylamine]: the IC50 was 9600 nM.
The figure for `CC(C)(C)C#C/C=C/CN(Cc1cccc(OCc2ccccc2)c1)C1CC1` [Compound 43, (E)-N-cyclopropyl-N-(6,6-dimethyl-2-hepten-4-ynyl)-3-benzyloxybenzylamine] is 3900 nM; for `Cc1cc(CN(C)C/C=C/C#CC(C)(C)C)cc(OCc2ccccc2)c1` [Compound 48, (E)-N-(6,6-dimethyl-2-hepten-4-ynyl)-N-methyl-3-benzyloxy-5-methylbenzylamine hydrochloride] it is 5100 nM.
The figure for `CN(C/C=C/C#CC(C)(C)C)Cc1ccc(F)c(OCc2ccccc2)c1` [Compound 49, (E)-N-(6,6-dimethyl-2-hepten-4-ynyl)-N-methyl-3-benzyloxy-4-fluorobenzylamine] is 4900 nM; for `CN(C/C=C/C#CC(C)(C)C)Cc1ccc(O)c(OCc2ccccc2)c1` [Compound 50, (E)-N-(6,6-dimethyl-2-hepten-4-ynyl)-N-methyl-3-benzyloxy-4-hydroxybenzylamine hydrochloride] it is 2100 nM.
Consider `COc1ccccc1COc1cccc(CN(C)C/C=C/C#CC(C)(C)C)c1` [Compound 51, (E)-N-(6,6-dimethyl-2-hepten-4-ynyl)-N-methyl-3-(2-methoxybenzyloxy)benzylamine hydrochloride], for which the IC50 stood at 1100 nM.
Under `COc1cccc(COc2cccc(CN(C)C/C=C/C#CC(C)(C)C)c2)c1` [Compound 52, (E)-N-(6,6-dimethyl-2-hepten-4-ynyl)-N-methyl-3-(3-methoxybenzyloxy)benzylamine hydrochloride] stands 1400 nM; under `Cc1cccc(COc2cccc(CN(C)C/C=C/C#CC(C)(C)C)c2)c1` [Compound 53, (E)-N-(6,6-dimethyl-2-hepten-4-ynyl)-N-methyl-3-(3-methylbenzyloxy)benzylamine], 660 nM; under `Cc1ccc(COc2cccc(CN(C)C/C=C/C#CC(C)(C)C)c2)cc1` [Compound 54, (E)-N-(6,6-dimethyl-2-hepten-4-ynyl)-N-methyl-3-(4-methylbenzyloxy)benzylamine], 1800 nM.
The figure for `Cc1cccc(COc2cccc(CN(C)C/C=C/C#CC(C)(C)C)c2)c1C` [Compound 55, (E)-N-(6,6-dimethyl-2-hepten-4-ynyl)-N-methyl-3-(2,3-dimethylbenzyloxy)benzylamine hydrochloride] is 600 nM.
Under `CN(C/C=C/C#CC(C)(C)C)Cc1cccc(OCc2ccccc2Cl)c1` [Compound 56, (E)-N-(6,6-dimethyl-2-hepten-4-ynyl)-N-methyl-3-(2-chlorobenzyloxy)benzylamine] stands 2100 nM.
In the case of `CN(C/C=C/C#CC(C)(C)C)Cc1cccc(OCc2cccc(C(F)(F)F)c2)c1` [Compound 57, (E)-N-(6,6-dimethyl-2-hepten-4-ynyl)-N-methyl-3-(3-trifluoromethylbenzyloxy)benzylamine hydrochloride], the IC50 worked out at 3100 nM.
Under `CN(C/C=C/C#CC(C)(C)C)Cc1cccc(OCCCc2ccccc2)c1` [Compound 58, (E)-N-(6,6-dimethyl-2-hepten-4-ynyl)-N-methyl-3-(3-phenylpropoxy)benzylamine hydrochloride] stands 7900 nM.
The figure for `CCc1ccccc1COc1cccc(CN(C)C/C=C/C#CC(C)(C)C)c1` [Compound 62, (E)-N-(6,6-dimethyl-2-hepten-4-ynyl)-N-methyl-3-(2-ethylbenzyloxy)benzylamine hydrochloride] is 360 nM; for `CN(C/C=C/C#CC(C)(C)C)Cc1cccc(OC/C=C/c2ccccc2)c1` [Compound 63, N-[(E)-6,6-dimethyl-2-hepten-4-ynyl]-N-methyl-3-[(E)-3-phenyl-2-propenyloxy]benzylamine hydrochloride] it is 5400 nM.
`CN(C/C=C/C#CC(C)(C)C)Cc1cccc(OCc2cccc(O)c2)c1` [Compound 65, (E)-N-(6,6-dimethyl-2-hepten-4-ynyl)-N-methyl-3-(3-hydroxybenzyloxy)benzylamine]: the IC50 was 4600 nM.
With `CN(C/C=C/C#CC(C)(C)C)Cc1cccc(OCc2ccccc2F)c1` [Compound 66, (E)-N-(6,6-dimethyl-2-hepten-4-ynyl)-N-methyl-3-(2-fluorobenzyloxy)benzylamine hydrochloride], the IC50 is 1200 nM.
Under `CN(C/C=C/C#CC(C)(C)C)Cc1cccc(OCc2ccccc2C#N)c1` [Compound 67, (E)-N-(6,6-dimethyl-2-hepten-4-ynyl)-N-methyl-3-(2-cyanobenzyloxy)benzylamine hydrochloride] stands 2400 nM; under `CN(C/C=C/C#CC(C)(C)C)Cc1cccc(OCc2ccccc2C(F)(F)F)c1` [Compound 68, (E)-N-(6,6-dimethyl-2-hepten-4-ynyl)-N-methyl-3-(2-trifluoromethylbenzyloxy)benzylamine hydrochloride], 1200 nM.
The figure for `C=C(C)c1cccc(COc2cccc(CN(C)C/C=C/C#CC(C)(C)C)c2)c1` [Compound 69, (E)-N-(6,6-dimethyl-2-hepten-4-ynyl)-N-methyl-3-(3-isopropenylbenzyloxy)benzylamine] is 510 nM.
Under `CC(C)=Cc1cccc(COc2cccc(CN(C)C/C=C/C#CC(C)(C)C)c2)c1` [Compound 70, (E)-N-(6,6-dimethyl-2-hepten-4-ynyl)-N-methyl-3-[3-(2-methyl-1-propenyl)benzyloxy]benzylamine] stands 3100 nM; under `C=C(C)Cc1cccc(COc2cccc(CN(C)C/C=C/C#CC(C)(C)C)c2)c1` [Compound 71, (E)-N-(6,6-dimethyl-2-hepten-4-ynyl)-N-methyl-3-[3-(2-methyl-2-propenyl)benzyloxy]benzylamine], 540 nM.
Regarding `CC(C)=CCc1cccc(COc2cccc(CN(C)C/C=C/C#CC(C)(C)C)c2)c1` [Compound 72, (E)-N-(6,6-dimethyl-2-hepten-4-ynyl)-N-methyl-3-[3-(3-methyl-2-butenyl)benzyloxy]benzylamine], the IC50 stood at 9700 nM.
Under `CC(C)=CCOc1cccc(COc2cccc(CN(C)C/C=C/C#CC(C)(C)C)c2)c1` [Compound 73, (E)-N-(6,6-dimethyl-2-hepten-4-ynyl)-N-methyl-3-[3-(3-methyl-2-butenyloxy)benzyloxy]benzylamine] stands 2300 nM.
